From PubChem BioAssay AID1918934 (Molecular Pharmacology Branch, DTP, NCI, 2023)

System: 292921-168-R-J2-PDC complex spheroid viability
Assay: Anticancer human tumor 292921-168-R-J2-PDC patient-derived pancreatic carcinoma cell line growth inhibition
Details: for IC50: curve of first compound; for viability, T/C: stronger effect = lower value
Text: Multicellular complex tumor spheroid response to LSD1 Inhibitor Iadademstat in combination with a variety of drugs and investigational agents in selected tumor cell lines
The current study was undertaken to assess response to LSD1 inhibitors in combination with standard-of-care drugs and investigational agents in solid tumor complex spheroid models as well as in the K-562 leukemia. Complex spheroids include a stromal component modeled by human endothelial cells (HUVEC) and fibroblasts modeled by human mesenchymal stem cells (MSCs). The concentration ranges selected for each drug and investigational agent were based upon clinically achievable concentrations if the clinical Cmax of the agent was known.
Compounds. The drugs and investigational agents used in this study are listed on Table 1. All of the agents used, including staurosporine (NSC755774) and gemcitabine (NSC613327), were obtained from the Developmental Therapeutics Program, NCI. FDA-approved anticancer drugs are available from the NCI at http://dtp.nci.nih.gov/branches/dscb/oncology_drugset_explanation.html. Drugs and investigational agents were >95% pure by proton nuclear magnetic resonance (NMR) and liquid chromatography/mass spectrometry (LC/MS). Stock solutions were prepared at 400x in DMSO, stored at -70 degrees C, and diluted in fresh medium prior to their use. The final concentration of DMSO in cell culture wells never exceeded 0.25% (v/v). The FDA-approved anticancer drug set is available from the Developmental Therapeutics Program at https://dtp.cancer.gov/organization/dscb/obtaining/available_plates.htm. All drugs and investigational agents were tested over a range starting from a high concentration at or near the clinical Cmax and decreasing in half-log increments. If the clinical Cmax for an agent had not been determined, the highest concentration tested was 10 microM.
Cell Lines. The patient-derived cancer cell (PDC) lines: 292921-168-R-J2-PDC, K24384-001-R-PDC, and 521955-158-R2-J5-PDC pancreatic carcinomas, 556581-035-R-J1 ovarian carcinoma, 324938-238-R-J1-PDC, 855422-203-R-J1-PDC and 883617-216-R-J1-PDC urothelial bladder carcinomas, 743489-274-T-PDC renal cell carcinoma, 138582-R-J1 Merkel cell tumor, K60290-347-R-J1 and K57222-313-R-J1-PDC glioblastomas, 653999-131-R-J2-PDC, LG0703-F948-PDC, and 349418-098-R-PDC non-small cell lung carcinomas, 885512-296-R-J2-PDC, 171881-019-R-J1-PDC breast carcinomas and 186277-243-T-J2-PDC and 233499-124-R-J2-PDC colon carcinomas were obtained from the NCI Patient-Derived Models Repository (PDMR, https://pdmr.cancer.gov). The established cell lines NCI/ADR-RES (RRID:CVCL_14520 and OVCAR-5 (RRID:CVCL_1628) ovarian carcinomas, 786-O (RRID:CVCL_1051) and A498 (RRID:CVCL_A498) renal cell carcinoma, NCI-H211 (ATCC, cat. CRL-5824; RRID:CVCL_1529), NCI-H196 (ATCC, cat. CRL-5823, RRID:CVCL_1509), SW 1271 (ATCC, cat. CRL-2177, RRID:CVCL_1716) and NCI-H1876 (ATCC, cat. CRL-5902, RRID:CVCL_1503) small cell lung carcinomas, MDA-MB-231 (RRID:CVCL_0062) and MDA-MB-468 (RRID:CVCL_0419)breast carcinomas (10-12). Pooled donor human umbilical vein endothelial cells (HUVEC, Lonza, cat. CC-2519) and human mesenchymal stem cells (hMSC, Lonza, cat. PT-2501) were purchased from Lonza (Walkersville, MD).
Cell Culture. All cells were maintained in an incubator at 37 degrees C and 5% CO2 with 95% humidity. The PDC lines were cultured according to standard operating procedures established by the NCI PDMR (https://pdmr.cancer.gov). Briefly all PDCs were thawed and cultured in Matrigel-coated flasks prepared with a working solution of 1X Ham's F-12 nutrient mix, without supplementation (Invitrogen, Waltham, MA, cat. 11765054), 100 U/mL penicillin-streptomycin (Invitrogen, cat. 15140122), and 2.5% Matrigel (Corning Inc., Corning, NY, cat. 354248) for the first three passages. […]

[1] = second compound 0.1 µM, first compound 0.00316 µM
[2] = second compound 0.1 µM, first compound 0.01 µM
[3] = second compound 0.1 µM, first compound 0.0316 µM
[4] = second compound 0.1 µM, first compound 0.1 µM
[5] = second compound 0.316 µM, first compound 0.00316 µM
[6] = second compound 0.316 µM, first compound 0.01 µM
[7] = second compound 0.316 µM, first compound 0.0316 µM
[8] = second compound 0.316 µM, first compound 0.1 µM
[9] = second compound 1 µM, first compound 0.00316 µM
[10] = second compound 1 µM, first compound 0.01 µM
[11] = second compound 1 µM, first compound 0.0316 µM
[12] = second compound 1 µM, first compound 0.1 µM
[13] = second compound 3.16 µM, first compound 0.00316 µM
[14] = second compound 3.16 µM, first compound 0.01 µM
[15] = second compound 3.16 µM, first compound 0.0316 µM
[16] = second compound 3.16 µM, first compound 0.1 µM
[17] = second compound 10 µM, first compound 0.00316 µM
[18] = second compound 10 µM, first compound 0.01 µM
[19] = second compound 10 µM, first compound 0.0316 µM
[20] = second compound 10 µM, first compound 0.1 µM
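Further: seven day compound exposure before luminescent viability read.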
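Wherever viability, T/C is given: 100% = DMSO vehicle control wells.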

CC[C@@]1(O)C(=O)OCc2c1cc1n(c2=O)Cc2cc3c(CN(C)C)c(O)ccc3nc2-1 + NC1CC1c1ccc(-c2cccc(O)c2)cc1
IC50 (second compound 0.1 µM): 0.00322 µM | IC50 (second compound 0.316 µM): 0.00216 µM | IC50 (second compound 1 µM): 0.00163 µM | IC50 (second compound 3.16 µM): 0.00215 µM | IC50 (second compound 10 µM): 0.000375 µM | viability, T/C (second compound 0.1 µM, first compound 0.000316 µM): 81.3% | viability, T/C (second compound 0.1 µM, first compound 0.001 µM): 78.9% | viability, T/C [1]: 48.2% | viability, T/C [2]: 21.6% | viability, T/C [3]: 8.58% | viability, T/C [4]: 3.36% | viability, T/C (second compound 0.316 µM, first compound 0.000316 µM): 72.8% | viability, T/C (second compound 0.316 µM, first compound 0.001 µM): 65.3% | viability, T/C [5]: 41.9% | viability, T/C [6]: 21% | viability, T/C [7]: 8.47% | viability, T/C [8]: 3.37% | viability, T/C (second compound 1 µM, first compound 0.000316 µM): 61.8% | viability, T/C (second compound 1 µM, first compound 0.001 µM): 56.7% | viability, T/C [9]: 41.1% | viability, T/C [10]: 21.3% | viability, T/C [11]: 8.54% | viability, T/C [12]: 4.7% | viability, T/C (second compound 3.16 µM, first compound 0.000316 µM): 66.4% | viability, T/C (second compound 3.16 µM, first compound 0.001 µM): 61.9% | viability, T/C [13]: 44.2% | viability, T/C [14]: 17.8% | viability, T/C [15]: 8.75% | viability, T/C [16]: 3.88% | viability, T/C (second compound 10 µM, first compound 0.000316 µM): 50.7% | viability, T/C (second compound 10 µM, first compound 0.001 µM): 46.7% | viability, T/C [17]: 37.4% | viability, T/C [18]: 20.5% | viability, T/C [19]: 9.34% | viability, T/C [20]: 4.4%

COc1cc(C2c3cc4c(cc3C(OC3OC5COC(C)OC5C(O)C3O)C3COC(=O)C23)OCO4)cc(OC)c1O (stereo not given) + NC1CC1c1ccc(-c2cccc(O)c2)cc1
IC50 (second compound 0.1 µM): 0.0427 µM | IC50 (second compound 0.316 µM): 0.0213 µM | IC50 (second compound 1 µM): 0.0214 µM | IC50 (second compound 3.16 µM): 0.0137 µM | IC50 (second compound 10 µM): < 0.00949 µM | viability, T/C (second compound 0.1 µM, first compound 0.00949 µM): 84.3% | viability, T/C (second compound 0.1 µM, first compound 0.03 µM): 58.9% | viability, T/C (second compound 0.1 µM, first compound 0.0949 µM): 30.1% | viability, T/C (second compound 0.1 µM, first compound 0.3 µM): 19.4% | viability, T/C (second compound 0.1 µM, first compound 0.949 µM): 7.22% | viability, T/C (second compound 0.1 µM, first compound 3 µM): 4.45% | viability, T/C (second compound 0.316 µM, first compound 0.00949 µM): 64.8% | viability, T/C (second compound 0.316 µM, first compound 0.03 µM): 44.4% | viability, T/C (second compound 0.316 µM, first compound 0.0949 µM): 25.7% | viability, T/C (second compound 0.316 µM, first compound 0.3 µM): 18.6% | viability, T/C (second compound 0.316 µM, first compound 0.949 µM): 8.04% | viability, T/C (second compound 0.316 µM, first compound 3 µM): 5.02% | viability, T/C (second compound 1 µM, first compound 0.00949 µM): 64.7% | viability, T/C (second compound 1 µM, first compound 0.03 µM): 43.3% | viability, T/C (second compound 1 µM, first compound 0.0949 µM): 27.4% | viability, T/C (second compound 1 µM, first compound 0.3 µM): 16.4% | viability, T/C (second compound 1 µM, first compound 0.949 µM): 5.52% | viability, T/C (second compound 1 µM, first compound 3 µM): 4.94% | viability, T/C (second compound 3.16 µM, first compound 0.00949 µM): 54.8% | viability, T/C (second compound 3.16 µM, first compound 0.03 µM): 39.9% | viability, T/C (second compound 3.16 µM, first compound 0.0949 µM): 24.3% | viability, T/C (second compound 3.16 µM, first compound 0.3 µM): 15.2% | viability, T/C (second compound 3.16 µM, first compound 0.949 µM): 7.27% | viability, T/C (second compound 3.16 µM, first compound 3 µM): 3.74% | viability, T/C (second compound 10 µM, first compound 0.00949 µM): 44.7% | viability, T/C (second compound 10 µM, first compound 0.03 µM): 27.4% | viability, T/C (second compound 10 µM, first compound 0.0949 µM): 23% | viability, T/C (second compound 10 µM, first compound 0.3 µM): 17.1% | viability, T/C (second compound 10 µM, first compound 0.949 µM): 6.98% | viability, T/C (second compound 10 µM, first compound 3 µM): 5.53%

Nc1ncn(C2CC(O)C(CO)O2)c(=O)n1 (stereo not given) + NC1CC1c1ccc(-c2cccc(O)c2)cc1
IC50 (second compound 0.1 µM): 0.646 µM | IC50 (second compound 0.316 µM): 0.33 µM | IC50 (second compound 1 µM): 0.104 µM | IC50 (second compound 3.16 µM): 0.171 µM | IC50 (second compound 10 µM): 0.0908 µM | viability, T/C [1]: 79.1% | viability, T/C [2]: 76.2% | viability, T/C [3]: 71.9% | viability, T/C [4]: 66.9% | viability, T/C (second compound 0.1 µM, first compound 0.316 µM): 55% | viability, T/C (second compound 0.1 µM, first compound 1 µM): 46.5% | viability, T/C [5]: 74.7% | viability, T/C [6]: 75% | viability, T/C [7]: 65.2% | viability, T/C [8]: 60.4% | viability, T/C (second compound 0.316 µM, first compound 0.316 µM): 49.6% | viability, T/C (second compound 0.316 µM, first compound 1 µM): 44.4% | viability, T/C [9]: 64.8% | viability, T/C [10]: 52.3% | viability, T/C [11]: 53.4% | viability, T/C [12]: 53.2% | viability, T/C (second compound 1 µM, first compound 0.316 µM): 48% | viability, T/C (second compound 1 µM, first compound 1 µM): 39.1% | viability, T/C [13]: 65.2% | viability, T/C [14]: 63.5% | viability, T/C [15]: 61.4% | viability, T/C [16]: 54% | viability, T/C (second compound 3.16 µM, first compound 0.316 µM): 45.2% | viability, T/C (second compound 3.16 µM, first compound 1 µM): 38.4% | viability, T/C [17]: 55% | viability, T/C [18]: 56.3% | viability, T/C [19]: 55.3% | viability, T/C [20]: 47.2% | viability, T/C (second compound 10 µM, first compound 0.316 µM): 45.4% | viability, T/C (second compound 10 µM, first compound 1 µM): 39.8%
